Entries after “also recorded” stand apart in the source; their conditions may differ.
What was measured:
MDCK cells = test: Toxicity observed in the cell scattering screening; assay type: cell-based
Protocol: (§1) For scattering assays, MDCK cells were pre-incubated with compounds for 2 hours at 0.1-100 μM concentrations at 37° C. in a humidified atmosphere of 5% CO2, followed by 24 hr stimulation with 20 ng/ml HGF (R&D Systems), as previously described (Patane et al., Biochem Biophys Res Commun 375, 184-189, 2008). The cells were further incubated at 37° C. in an atmosphere of 5% CO2 for 24-48 hours, washed with phosphate-buffered saline (PBS; Gibco BRL), and fixed in PFA (Sigma). The quantification of scattering response was performed by counting the number of cells with scattered morphology in 30 independent colonies. The […] corresponds to the concentration of compounds leading to a 50% inhibition of Met-triggered cell scattering. Active compounds were assayed to impair scattering response also on human breast MCF10A cells following the same procedure. For survival assays, GTL-16, HepG2 and U-87 cells were cultured in serum-free media for 24 hours prior to compound addition for 48 hours. Viability was assessed with the Cell Titer Glo Luminescent Assay (Promega). For in vitro tumorigenesis, soft agar growth assays were preformed using GTL-16, HepG2, and U-87 cells, as previously described (Patane et al., Cancer Res 66, 4750-4757, 2006).
Compounds of examples 1 (XIII), 2 (XIV), 4 (XVI), 5 (XVII), and 6 (XVIII) in particular elicit inhibitory activity on Met-triggered cell scattering. […] The SU11274 (Met inhibitor; Sugen) was used as reference compound. […] These findings were further supported by analysing the inhibitory activity of compounds on breast cells. […] Altogether, these studies identify a new class of compounds of general formula (I), which are able to interfere with Met-triggered cell scattering.

GTL-16 cells = test: Soft agar anchorage-independent growth (in vitro tumorigenesis), GTL-16; assay type: cell-based, human
Protocol: MDCK cells were grown in Dulbecco's modified Eagle's medium (DMEM) (Gibco BRL) containing 4 mM L-glutamine and supplemented with 2% (v/v) foetal bovine serum (Gibco BRL), 100 U/mL penicillin, and 100 μg/mL streptomycin. Cells were plated at a density of 1000 cells per well in 24-well microplates and allowed to settle overnight at 37° C. in a humidified atmosphere of 5% CO2 prior to treatments. MCF10A human breast cells, MDA-MB231 human breast cancer cells, GTL-16 human gastric carcinoma cells, HepG2 human hepatocellular carcinoma cells, U-87 human glioblastoma-astrocytoma cells and LLC Lewis lung carcinoma cells were grown in RPMI medium (Gibco BRL) containing 4 mM L-glutamine and supplemented with 2% (v/v) foetal bovine serum (Gibco BRL), 100 U/mL penicillin, and 100 μg/mL streptomycin and kept at 37° C. in a humidified atmosphere of 5% CO2.
as §1, with “2006). […]” for “2006).”

[1] = tested on: Met phosphorylation, HepG2 cells; test: Met phosphorylation upon HGF stimulation in HepG2 cells; assay type: cell-based, human
Protocol: After starvation, cells were pretreated with inhibitors, then stimulated with HGF, and total extracts were analyzed as described (Maina et al., Mol Cell 7, 1293-1306, 2001). Antibodies used were anti-tubulin (Sigma), anti-phospho Y1234-1235-Met, anti-Akt, anti-phospho-Akt, anti-phospho-Gab1, anti phosphor-ErbBs, anti-phospho-PDGFR, anti-PDGFRs, anti-ERKs (Cell Signaling), anti-ErbBs, anti-Met (Santa Cruz).
Activation of Met by HGF can be biochemically evaluated by following its phosphorylation levels and activation of downstream targets. We started to biochemically characterise the inhibitory properties of identified compounds by following Met phosphorylation and its downstream targets in HepG2 cells. […] These findings were further supported using other cell lines, such as MDA-MB231 human breast cancer cells (FIG. 2).

[2] = Toxicity evaluation in vivo (body and organ weight); set-up: species or system mice
Protocol: The weight of nude mice treated with the compound of example 4 (30 mg kg-1) or vehicle was measured before, during and after treatment. To evaluate the weight of heart, spleen, kidney, and liver, mice were sacrified after 21 days of treatment, organs were dissected, rinsed in PBS, and weight was measured.
We evaluated whether compounds of general formula elicited toxic effects in vivo by following mouse weight before, during and after treatment. […] We also evaluated the weight of heart, spleen, kidney and liver of mice treated with the compound of example 4 or vehicle.

O=C(Cc1cc(C(F)(F)F)cc(C(F)(F)F)c1)N[C@@H](Cc1ccccc1)C(=O)Nc1ccc(-c2cn3c(n2)sc2ccccc23)cc1 [Example 4, (S)-2-(3,5-bis(trifluoromethyl)phenylacetamido)-3-phenyl-N-[4-(imidazo[2,1-b]benzothiazol-2-yl)phenyl]propanamide]
Concentration at which toxicity was or was not observed (MDCK cells): 100 µM
Toxicity (MDCK cells; Table 1, scattering screening): >50 µM
Met-triggered anchorage-independent growth (GTL-16 cells; GTL-16 cells, dose dependent, listed as XVI): severely reduced; also recorded: severely affected
IC50 (GTL-16 cells; Homo sapiens, soft agar growth, GTL-16): 811 nM
Met phosphorylation [1]: significantly reduced
weight of heart, spleen, kidney and liver ([2]; after 21 days of treatment, versus vehicle): No differences
weight of mice ([2]; daily treated, 30 mg kg-1, compared to vehicle): No significant changes

From patent US8822698B2, “Aminoacid derivatives, their process of preparation and their therapeutical uses as inhibitors of oncogenic signals by the Met family” (Universite D'Aix-Marseille, priority 2009, dated 2014)
